Key:
IL-13 = test: Cytokine assay: IL-13 release from PHA-L stimulated human PBMCs; type: cell-based; conditions: Homo sapiens, PBMC, read-out: IL13 IC50
Method in brief: (§1)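 Thawed cryopreserved human PBMCs (~250,000 cells/well) in RPMI 1640 with 10% heat-inactivated FBS were treated with compound for ~10 min at room temperature, then stimulated with 3.5 μg/mL PHA-L (final) for 48 h at 37° C. Supernatant cytokine was measured by HTRF, and IC50 was derived by four-parameter logistic fit.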

IL-4 = test: Cytokine assay: IL-4 release from PHA-L stimulated human PBMCs; type: cell-based; conditions: Homo sapiens, PBMC, read-out: IL4 IC50
Method in brief: as §1

[1] = biological target: PDE4B (aa 152-484, Uniprot ID Q07343) (Homo sapiens (Human), UniProt Q07343); test: PDE4 SPA assay (scintillation proximity assay); type: biochemical; conditions: read-out: PDE4B2 IC50
Chain of PDE4B (aa 152-484, Uniprot ID Q07343) (Q07343 324-656): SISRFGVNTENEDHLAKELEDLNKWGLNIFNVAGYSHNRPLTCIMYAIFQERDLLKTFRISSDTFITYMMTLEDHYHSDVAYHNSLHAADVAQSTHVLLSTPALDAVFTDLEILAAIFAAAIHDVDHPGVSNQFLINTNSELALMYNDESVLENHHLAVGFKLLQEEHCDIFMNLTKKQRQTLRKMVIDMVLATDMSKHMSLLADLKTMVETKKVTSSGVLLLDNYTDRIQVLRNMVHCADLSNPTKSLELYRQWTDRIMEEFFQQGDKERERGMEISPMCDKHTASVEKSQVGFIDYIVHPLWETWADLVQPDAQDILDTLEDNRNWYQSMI
Method in brief: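 PDE4B (aa 152-484, ~81.6 pM) preincubated ~10 min with compound, then 1 μM ³H/unlabeled cAMP added in Tris pH 7.5, 1.3 mM MgCl2, 0.004% Brij 35, ~2% DMSO; 30 min at RT. Product captured on SPA beads and counted; IC50 by four-parameter logistic fit.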

IFNγ = test: Cytokine assay: IFNγ release from PHA-L stimulated human PBMCs; type: cell-based; conditions: Homo sapiens, PBMC
Method in brief: as §1

Row | SMILES | IC50 (IL-13) [nM] | IC50 (IL-4) [nM] | IC50 [1] [nM] | IC50 (IFNγ) [nM]
1 | CCOc1c(OC)cc(F)c(-c2cncc(C3COB(O)C3)c2)c1F (centres unmarked) [Example 163, 4-(5-(3-ethoxy-2,6-difluoro-4-methoxyphenyl)pyridin-3-yl)-1,2-oxaborolan-2-ol] | 2510 | 31.1 | 3.71 | 14.2
2 | CCOc1c(OC)ccc(-c2cccc(C3COB(O)C3)c2)c1F (centres unmarked) [Example 166, 4-(3′-ethoxy-2′-fluoro-4′-methoxy-[1,1′-biphenyl]-3-yl)-1,2-oxaborolan-2-ol] | 1010 | 49.2 | 0.97 | 5.46
3 | CCCOc1c(OC)ccc(-c2cncc(C3COB(O)C3)c2)c1OC (centres unmarked) [Example 167, 4-(5-(2,4-dimethoxy-3-propoxphenyl)pyridin-3-yl)-1,2-oxaborolan-2-ol] | 2790 | 1.37 | 1.98 | 1.13
4 | CCOc1cc(-c2cccc(C3COB(O)C3)c2)ccc1SC (centres unmarked) [Example 172, 4-(3′-ethoxy-4′-(methylthio)-[1,1′-biphenyl]-3-yl)-1,2-oxaborolan-2-ol] | 1110 | 269 | 1.76 | 27.5
5 | CCCOc1cc(-c2cncc(C3COB(O)C3)c2)ncc1OC (centres unmarked) [Example 178] | 1280 | 1.81 | 2.02 | 0.91
6 | COc1ccc(-c2cccc(C3COB(O)C3)c2)cc1OC1CCC1 (centres unmarked) [Example 184, 4-(3′-cyclobutoxy-4′-methoxy-[1,1′-biphenyl]-3-yl)-1,2-oxaborolan-2-ol] | 1400 | 79.2 | 0.8 | 4.48

Other lines, results leading:

Row | IC50 (IL-13) [nM] | IC50 (IL-4) [nM] | IC50 [1] [nM] | IC50 (IFNγ) [nM] | SMILES
7 | 960 | 419 | 11.3 | 38.6 | COc1cc(-c2cccc(C3COB(O)C3)c2)cnc1OC (centres unmarked) [Example 161, 4-(3-(5,6-dimethoxypyridin-3-yl)phenyl)-1,2-oxaborolan-2-ol]
8 | 975 | 56.3 | 14.5 | 8.29 | COc1ccc(-c2cccc(C3COB(O)C3)n2)c(F)c1OC (centres unmarked) [Example 162, 4-(6-(2-fluoro-3,4-dimethoxyphenyl)pyridin-2-yl)-1,2-oxaborolan-2-ol]
9 | 990 | 128 | 2.11 | 3.25 | COc1ccc(-c2cccc(C3COB(O)C3)c2)cc1OCC1CC1 (centres unmarked) [Example 165, 4-(3′-(cyclopropylmethoxy)-4′-methoxy-[1,1′-biphenyl]-3-yl)-1,2-oxaborolan-2-ol]
10 | 2020 | 33 | 2.85 | 5.84 | COc1ccc(-c2cncc(C3COB(O)C3)c2)cc1OC1CCSCC1 (centres unmarked) [Example 169, 4-(5-(4-methoxy-3-((tetrahydro-2H-thiopyran-4-yl)oxy)phenyl)pyridin-3-yl)-1,2-oxaborolan-2-ol]
11 | 1350 | 2.43 | 1.73 | 3.22 | CCOc1cc(-c2cc(C3COB(O)C3)cnc2CC)ccc1OC (centres unmarked) [Example 171, 4-(5-(3-ethoxy-4-methoxyphenyl)-6-ethylpyridin-3-yl)-1,2-oxaborolan-2-ol]
12 | 1140 | 279 | 8.57 | 14.4 | COc1cnc(-c2cccc(C3COB(O)C3)c2)cc1OC (centres unmarked) [Example 174, 4-(3-(4,5-dimethoxypyridin-2-yl)phenyl)-1,2-oxaborolan-2-ol]
13 | 2310 | 14.3 | 5.03 | 4.35 | COc1cc(-c2ccc(OC)c(OC3CCCC3)c2)nc(C2COB(O)C2)n1 (centres unmarked) [Example 175, 4-(4-(3-(cyclopentyloxy)-4-methoxyphenyl)-6-methoxypyrimidin-2-yl)-1,2-oxaborolan-2-ol]
14 | 1330 | 245 | 5.14 | 19.6 | CCOc1ccc(-c2cccc(C3COB(O)C3)c2)cc1OC (centres unmarked) [Example 182, 4-(4′-ethoxy-3′-methoxy-[1,1′-biphenyl]-3-yl)-1,2-oxaborolan-2-ol]

Reference: patent US11559538B2, “Substituted 1,2-oxaborolan-2-ols as PDE4 inhibitors” (Pfizer Inc., priority 2018, dated 2023)
